PubChem BioAssay (NCI)
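Cells were grown in 96-well plates and exposed to each compound for 48 hours at five concentrations; endpoints were interpolated linearly between bracketing concentrations, or set to the highest concentration if not reached. TGI: total growth inhibition.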

Legend:
Test in all cases: DTP human tumour cell line panel, 48 h
786-0 renal = system: 786-0 renal
A498 renal = system: A498 renal
A549 NSCLC = system: A549 NSCLC
ACHN renal = system: ACHN renal
CAKI-1 renal = system: CAKI-1 renal
CCRF-CEM leukemia = system: CCRF-CEM leukemia
COLO 205 colon = system: COLO 205 colon
DLD-1 colon = system: DLD-1 colon
DMS 273 small cell lung = system: DMS 273 small cell lung
EKVX NSCLC = system: EKVX NSCLC
HCC-2998 colon = system: HCC-2998 colon
HCT-116 colon = system: HCT-116 colon
HL-60(TB) leukemia = system: HL-60(TB) leukemia
HOP-18 NSCLC = system: HOP-18 NSCLC
HOP-62 NSCLC = system: HOP-62 NSCLC
HT29 colon = system: HT29 colon
IGROV1 ovarian = system: IGROV1 ovarian
K-562 leukemia = system: K-562 leukemia
KM12 colon = system: KM12 colon
KM20L2 colon = system: KM20L2 colon
LOX IMVI melanoma = system: LOX IMVI melanoma
LXFL 529 NSCLC = system: LXFL 529 NSCLC
M14 melanoma = system: M14 melanoma
M19-MEL melanoma = system: M19-MEL melanoma
MALME-3M melanoma = system: MALME-3M melanoma
MOLT-4 leukemia = system: MOLT-4 leukemia
NCI-H226 lung = system: NCI-H226 lung
NCI-H23 lung = system: NCI-H23 lung
NCI-H460 lung = system: NCI-H460 lung
NCI-H522 lung = system: NCI-H522 lung
OVCAR-3 ovarian = system: OVCAR-3 ovarian
OVCAR-4 ovarian = system: OVCAR-4 ovarian
OVCAR-5 ovarian = system: OVCAR-5 ovarian
OVCAR-8 ovarian = system: OVCAR-8 ovarian
RXF 393 renal = system: RXF 393 renal
RXF-631 renal = system: RXF-631 renal
SF-268 CNS = system: SF-268 CNS
SF-295 CNS = system: SF-295 CNS
SF-539 CNS = system: SF-539 CNS
SK-MEL-2 melanoma = system: SK-MEL-2 melanoma
SK-MEL-28 melanoma = system: SK-MEL-28 melanoma
SK-MEL-5 melanoma = system: SK-MEL-5 melanoma
SK-OV-3 ovarian = system: SK-OV-3 ovarian
SN12C renal = system: SN12C renal
SNB-19 CNS = system: SNB-19 CNS
SNB-75 CNS = system: SNB-75 CNS
SNB-78 CNS = system: SNB-78 CNS
SR leukemia = system: SR leukemia
SW-620 colon = system: SW-620 colon
TK-10 renal = system: TK-10 renal
U251 CNS = system: U251 CNS
UACC-257 melanoma = system: UACC-257 melanoma
UACC-62 melanoma = system: UACC-62 melanoma
UO-31 renal = system: UO-31 renal
XF 498 CNS = system: XF 498 CNS

Measured: TGI

FC(F)(F)c1cccc2ns[s+]c12
> 100 µM: 786-0 renal | A498 renal | A549 NSCLC | ACHN renal | CAKI-1 renal | CCRF-CEM leukemia | COLO 205 colon | DLD-1 colon | DMS 273 small cell lung | EKVX NSCLC | HCC-2998 colon | HCT-116 colon | HL-60(TB) leukemia | HOP-18 NSCLC | HOP-62 NSCLC | HT29 colon | IGROV1 ovarian | K-562 leukemia | KM12 colon | KM20L2 colon | LOX IMVI melanoma | LXFL 529 NSCLC | M14 melanoma | M19-MEL melanoma | MALME-3M melanoma | MOLT-4 leukemia | NCI-H226 lung | NCI-H23 lung | NCI-H460 lung | NCI-H522 lung | OVCAR-3 ovarian | OVCAR-4 ovarian | OVCAR-5 ovarian | OVCAR-8 ovarian | RXF 393 renal | RXF-631 renal | SF-268 CNS | SF-295 CNS | SF-539 CNS | SK-MEL-2 melanoma | SK-MEL-28 melanoma | SK-MEL-5 melanoma | SK-OV-3 ovarian | SN12C renal | SNB-19 CNS | SNB-75 CNS | SNB-78 CNS | SR leukemia | SW-620 colon | TK-10 renal | U251 CNS | UACC-257 melanoma | UACC-62 melanoma | UO-31 renal | XF 498 CNS
